# In patent publication US6825170B2, “6-O-acyl ketolide antibacterials” (Ortho-McNeil Pharmaceutical, Inc., priority 2001, dated 2004):
# Legend:
# Assay in all cases: MIC, microdilution broth method (NCCLS)
# Type in all cases: cell-based
# Conditions in all cases: 35° C., 16-20 hours
# S. pneumoniae ATCC49619 = system: S. pneumoniae ATCC49619
# Description: (§1) Minimal inhibitory concentration (MIC) has been an indicator of in vitro antibacterial activity widely used in the art. The in vitro antimicrobial activity of the compounds was determined by the microdilution broth method following the test method from the National Committee for Clinical Laboratory Standards (NCCLS). This method is described in the NCCLS Document M7-A4, Vol.17, No.2, “Methods for Dilution Antimicrobial Susceptibility Test for Bacteria that Grow Aerobically—Fourth Edition”, which is incorporated herein by reference.
# (§2) In this method two-fold serial dilutions of drug in cation adjusted Mueller-Hinton broth are added to wells in microdilution trays. The test organisms are prepared by adjusting the turbidity of actively growing broth cultures so that the final concentration of test organism after it is added to the wells is approximately 5×10^4 CFU/well.
# (§3) Following inoculation of the microdilution trays, the trays are incubated at 35° C. for 16-20 hours and then read. […] The amount of growth in the wells containing the test compound is compared with the amount of growth in the growth-control wells (no test compound) used in each tray. As set forth in Table 1, compounds of the present invention were tested against a variety of Gram positive and Gram negative pathogenic bacteria resulting in a range of activities depending on the organism tested.
# E. faecalis ATCC29212 = system: E. faecalis ATCC29212
# Description: as §1, §2, §3
# S. aureus ATCC29213 = system: S. aureus ATCC29213
# Description: as §1, §2, §3
# H. influenzae ATCC49247 = system: H. influenzae ATCC49247
# Description: as §1, §2, §3
SMILES,MIC (D: S. pneumoniae ATCC49619) (S. pneumoniae ATCC49619),MIC (C: E. faecalis ATCC29212) (E. faecalis ATCC29212) [µg/mL],MIC (B: S. aureus ATCC29213) (S. aureus ATCC29213) [µg/mL],MIC (E: H. influenzae ATCC49247) (H. influenzae ATCC49247) [µg/mL]
CCC1OC(=O)C(C)C(=O)C(C)C(OC2OC(C)CC(N(C)C)C2O)C(C)(OC(=O)OCC=Cc2cccc(-c3ncccn3)c2)CC(C)C(=O)C(C)C2NC(=O)OC12C (stereo not shown) [Compound 15],0.03 µg/mL,0.06,0.12,0.5
CCC1OC(=O)C(C)C(=O)C(C)C(OC2OC(C)CC(N(C)C)C2O)C(C)(OC(=O)OCC=Cc2ccc(-c3cnccn3)cc2)CC(C)C(=O)C(C)C2NC(=O)OC12C (stereo not shown) [Compound 19],≦0.015 μg/mL,0.06,0.12,
CCC1OC(=O)C(C)C(=O)C(C)C(OC2OC(C)CC(N(C)C)C2O)C(C)(OC(=O)OCC=Cc2ccc(-n3cccn3)cc2)CC(C)C(=O)C(C)C2NC(=O)OC12C (stereo not shown) [Compound 21],≦0.015 μg/mL,0.06,0.12,
CCC1OC(=O)C(C)C(=O)C(C)C(OC2OC(C)CC(N(C)C)C2O)C(C)(OC(=O)OCC=Cc2ccc(-n3cncn3)cc2)CC(C)C(=O)C(C)C2NC(=O)OC12C (stereo not shown) [Compound 22],≦0.015 μg/mL,0.06,0.25,0.5
CCC1OC(=O)C(C)C(=O)C(C)C(OC2OC(C)CC(N(C)C)C2O)C(C)(OC(=O)OCC=Cc2ccc(-n3ccnn3)cc2)CC(C)C(=O)C(C)C2NC(=O)OC12C (stereo not shown) [Compound 24],≦0.015 μg/mL,0.06,0.12,1
CCC1OC(=O)C(C)C(=O)C(C)C(OC2OC(C)CC(N(C)C)C2O)C(C)(OC(=O)OCC=Cc2ccc(-c3ccn(C)n3)cc2)CC(C)C(=O)C(C)C2NC(=O)OC12C (stereo not shown) [Compound 26],0.03 µg/mL,0.12,0.25,2
CCC1OC(=O)C(C)C(=O)C(C)C(OC2OC(C)CC(N(C)C)C2O)C(C)(OC(=O)OCC=Cc2ccc(-n3cccn3)cc2F)CC(C)C(=O)C(C)C2NC(=O)OC12C (stereo not shown) [Compound 30],≦0.015 μg/mL,0.06,0.12,1
CCC1OC(=O)C(C)C(=O)C(C)C(OC2OC(C)CC(N(C)C)C2O)C(C)(OC(=O)OCC=Cc2ccc(-n3cncn3)c(F)c2)CC(C)C(=O)C(C)C2NC(=O)OC12C (stereo not shown) [Compound 31],0.03 µg/mL,0.06,0.12,1
CCC1OC(=O)C(C)C(=O)C(C)C(OC2OC(C)CC(N(C)C)C2O)C(C)(OC(=O)OCC=Cc2cnn(-c3ccccc3)c2)CC(C)C(=O)C(C)C2NC(=O)OC12C (stereo not shown) [Compound 33],0.06 µg/mL,0.12,0.25,1
CCC1OC(=O)C(C)C(=O)C(C)C(OC2OC(C)CC(N(C)C)C2O)C(C)(OC(=O)OCC=Cc2ccc3ncccc3c2)CC(C)C(=O)C(C)C2NC(=O)OC12C (stereo not shown) [Compound 40],0.06 µg/mL,0.06,0.12,
CCC1OC(=O)C(C)C(=O)C(C)C(OC2OC(C)CC(N(C)C)C2O)C(C)(OC(=O)OCC=Cc2ccc3nccnc3c2)CC(C)C(=O)C(C)C2NC(=O)OC12C (stereo not shown) [Compound 44],≦0.015 μg/mL,0.06,0.12,
CCC1OC(=O)C(C)C(=O)C(C)C(OC2OC(C)CC(N(C)C)C2O)C(C)(OC(=O)OCCCc2ccc(-c3ncccn3)cc2)CC(C)C(=O)C(C)C2NC(=O)OC12C (stereo not shown) [Compound 139],0.12 µg/mL,0.06,0.12,
CCC1OC(=O)C(C)(F)C(=O)C(C)C(OC2OC(C)CC(N(C)C)C2O)C(C)(OC(=O)OCC=Cc2ccc(-c3ncccn3)cc2)CC(C)C(=O)C(C)C2NC(=O)OC12C (stereo not shown) [Compound 288],0.06 µg/mL,0.12,0.25,
CCC1OC(=O)C(C)C(=O)C(C)C(OC2OC(C)CC(N(C)C)C2O)C(C)(OC(=O)NOCCc2ccc(-c3cnccn3)cc2)CC(C)C(=O)C(C)C2NC(=O)OC12C (stereo not shown) [Compound 578],0.12 µg/mL,0.25,0.5,
CCC1OC(=O)C(C)C(=O)C(C)C(OC2OC(C)CC(N(C)C)C2O)C(C)(OC(=O)NOCC#Cc2ccc(-c3ncccn3)cc2)CC(C)C(=O)C(C)C2NC(=O)OC12C (stereo not shown) [Compound 602],0.03 µg/mL,0.12,0.25,
CCC1OC(=O)C(C)C(=O)C(C)C(OC2OC(C)CC(N(C)C)C2O)C(C)(OC(=O)NOCC=Cc2ccc(-c3cnccn3)cc2)CC(C)C(=O)C(C)C2NC(=O)OC12C (stereo not shown) [Compound 606],0.06 µg/mL,0.12,0.25,
CCC1OC(=O)C(C)C(=O)C(C)C(OC2OC(C)CC(N(C)C)C2O)C(C)(OC(=O)NOCC=Cc2ccc(-c3cccnn3)cc2)CC(C)C(=O)C(C)C2NC(=O)OC12C (stereo not shown) [Compound 607],0.03 µg/mL,0.25,0.25,
CC[C@H]1OC(=O)[C@H](C)C(=O)[C@H](C)[C@@H](O[C@@H]2O[C@H](C)C[C@H](N(C)C)[C@H]2O)[C@](C)(OC(=O)NOC/C=C/c2cccnc2)C[C@@H](C)C(=O)[C@H](C)[C@H]2NC(=O)O[C@@]21C [Compound 615],0.06 µg/mL,0.25,1,
CC[C@H]1OC(=O)[C@H](C)C(=O)[C@H](C)[C@@H](O[C@@H]2O[C@H](C)C[C@H](N(C)C)[C@H]2O)[C@](C)(OC(=O)NOC/C=C/c2cccc(-c3ncccn3)c2)C[C@@H](C)C(=O)[C@H](C)[C@H]2NC(=O)O[C@@]21C [Compound 616],0.06 µg/mL,0.25,0.5,
CC[C@H]1OC(=O)[C@H](C)C(=O)[C@H](C)[C@@H](O[C@@H]2O[C@H](C)C[C@H](N(C)C)[C@H]2O)[C@](C)(OC(=O)NOC/C=C/c2ccc(-c3ccccn3)cc2)C[C@@H](C)C(=O)[C@H](C)[C@H]2NC(=O)O[C@@]21C [Compound 617],0.03 µg/mL,0.12,0.25,
CC[C@H]1OC(=O)[C@H](C)C(=O)[C@H](C)[C@@H](O[C@@H]2O[C@H](C)C[C@H](N(C)C)[C@H]2O)[C@](C)(OC(=O)NOC/C=C/c2ccc(-n3cccn3)cc2)C[C@@H](C)C(=O)[C@H](C)[C@H]2NC(=O)O[C@@]21C [Compound 619],0.03 µg/mL,0.12,0.25,
CC[C@H]1OC(=O)[C@H](C)C(=O)[C@H](C)[C@@H](O[C@@H]2O[C@H](C)C[C@H](N(C)C)[C@H]2O)[C@](C)(OC(=O)NOC/C=C/c2cnc3ccccc3c2)C[C@@H](C)C(=O)[C@H](C)[C@H]2NC(=O)O[C@@]21C [Compound 620],0.03 µg/mL,0.12,0.5,
CC[C@H]1OC(=O)[C@H](C)C(=O)[C@H](C)[C@@H](O[C@@H]2O[C@H](C)C[C@H](N(C)C)[C@H]2O)[C@](C)(OC(=O)N(C)OCCc2ccc(-c3ncccn3)cc2)C[C@@H](C)C(=O)[C@H](C)[C@H]2NC(=O)O[C@@]21C [Compound 621],0.12 µg/mL,0.25,1,
